The values that follow come from ChEMBL document CHEMBL2010718, “Human kallikrein 6 inhibitors with a para-amidobenzylanmine P1 group identified through virtual screening” (Bioorg Med Chem Lett, 2012).

One test has as its target Plasma kallikrein (Homo sapiens, UniProt P03952). The test can be described thus: Inhibition of plasma kallikrein.
A further test addresses Kallikrein-1 (Homo sapiens, UniProt P06870). Kind of test: Inhibition of human kallikrein 1.
The target in test [1] is T1, Prostate-specific antigen (Homo sapiens, UniProt P07288).
T1 sequence (P07288 whole entry): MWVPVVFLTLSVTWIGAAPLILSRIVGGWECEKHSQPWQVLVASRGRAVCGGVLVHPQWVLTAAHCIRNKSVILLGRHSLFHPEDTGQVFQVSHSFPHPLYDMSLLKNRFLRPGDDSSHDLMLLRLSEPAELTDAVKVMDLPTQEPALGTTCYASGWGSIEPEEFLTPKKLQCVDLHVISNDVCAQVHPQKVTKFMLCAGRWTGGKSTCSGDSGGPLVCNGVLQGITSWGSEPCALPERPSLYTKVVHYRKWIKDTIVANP
The test can be described thus: Inhibition of human kallikrein 3.

Kallikrein-1, sequence (P06870 whole entry): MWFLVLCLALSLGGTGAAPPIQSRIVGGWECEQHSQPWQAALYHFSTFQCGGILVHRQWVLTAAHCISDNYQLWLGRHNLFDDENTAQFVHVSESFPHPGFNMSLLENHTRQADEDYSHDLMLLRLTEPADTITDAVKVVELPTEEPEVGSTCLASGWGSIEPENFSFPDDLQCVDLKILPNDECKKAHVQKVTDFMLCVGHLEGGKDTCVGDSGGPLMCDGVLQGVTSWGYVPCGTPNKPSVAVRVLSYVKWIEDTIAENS
Plasma kallikrein, sequence (P03952 20-390 limits assumed): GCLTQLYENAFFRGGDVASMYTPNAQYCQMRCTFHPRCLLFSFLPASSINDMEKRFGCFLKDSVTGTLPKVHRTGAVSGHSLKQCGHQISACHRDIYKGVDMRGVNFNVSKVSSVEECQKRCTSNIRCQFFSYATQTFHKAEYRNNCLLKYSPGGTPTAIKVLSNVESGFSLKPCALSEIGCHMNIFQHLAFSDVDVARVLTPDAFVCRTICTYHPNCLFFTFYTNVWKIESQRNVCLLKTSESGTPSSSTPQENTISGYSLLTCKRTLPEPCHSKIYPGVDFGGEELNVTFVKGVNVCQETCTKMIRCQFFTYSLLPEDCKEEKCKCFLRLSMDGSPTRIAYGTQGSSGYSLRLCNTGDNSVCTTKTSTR
Plasma kallikrein, sequence (P03952 391-638 limits assumed): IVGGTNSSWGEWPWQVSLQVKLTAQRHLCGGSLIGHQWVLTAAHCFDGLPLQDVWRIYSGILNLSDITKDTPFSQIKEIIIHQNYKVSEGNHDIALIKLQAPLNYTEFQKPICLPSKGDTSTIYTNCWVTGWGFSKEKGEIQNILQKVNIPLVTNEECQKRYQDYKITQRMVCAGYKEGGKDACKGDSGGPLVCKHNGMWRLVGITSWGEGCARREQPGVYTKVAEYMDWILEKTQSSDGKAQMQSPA

The term IC50 denotes the midpoint of a concentration-inhibition curve. At Plasma kallikrein, `NC[C@H]1CC[C@H](C(=O)NC(Cc2ccc(Oc3ncccn3)cc2)C(=O)Nc2cccc(C(=O)O)c2)CC1` (some centres undefined) had an IC50 of 710 nM. In other words, the sub-micromolar range.
What is called Ki is a measure of affinity in units of concentration, obtained from inhibition or displacement. A higher Ki goes with lower affinity. Compound `N=C(N)c1cc(Br)c(OCCCCCOc2c(Br)cc(C(=N)N)cc2Br)c(Br)c1` showed a Ki on Kallikrein-1 of 810 nM. In other words, the sub-micromolar range.
`O=C(OCc1ccccc1)c1cccc(OC(=O)N2C(=O)[C@@H](Cc3ccc(O)cc3)[C@H]2C(=O)OCc2ccccc2)c1` registered an IC50 in test [1] of 226 nM. In other words, the sub-micromolar range.
`N=C(N)c1ccc(OCc2ccc(COc3ccc(C(=N)N)cc3I)cc2)c(I)c1`: the Ki on Kallikrein-1 was 31 nM.
